From US20250025451A1, “TREATMENT OF CANCER WITH KDM4 INHIBITORS” (Celgene Corporation, priority 2021, published 2025)
Like-named read-outs stand apart in the source and are kept apart here.

Experiments:
[1] = system: myeloid hematopoietic progenitor cells derived from human bone marrow; experiment: myeloid colony formation of hematopoietic progenitor cells; type: cell-based
Procedure: Compound 1 was evaluated for its effects on proliferation of erythroid and myeloid hematopoietic progenitor cells derived from human bone marrow at […] Technologies Inc. (Vancouver, BC, Canada).
Cells were thawed rapidly at 37° C. into DNAse I and then diluted in 10 mL of Iscove's Modified Dulbecco's medium containing 2% fetal bovine serum (IMDM+2% FBS) and washed by centrifugation (1200 rpm for 10 minutes at room temperature). The supernatant was discarded and the cell pellet resuspended in a known volume of IMDM+2% FBS. A nucleated cell count (3% glacial acetic acid) and viability assessment (trypan blue exclusive test) were performed.
Compound 1 and positive control (panobinostat) were diluted in DMSO and tested at concentrations ranging from 0.002 μM to 5 μM in final media. These dilutions provided the appropriate final test concentrations required for the test and control articles ([…], and 0.002 μM).
Test and control articles were incubated with human bone marrow hematopoietic progenitor cells. After 14 days, cell colonies were assessed.
To calculate the concentration of 50% and 90% inhibition of colony growth (IC50 and IC90) for each test article, a dose response curve was generated plotting the log of the test article concentration versus the percentage of control colony growth using GraphPad Prism. […] The IC50 and IC90 values for both test and control articles were derived from an interpolation of the curve fit. In cases where the IC50/90 value reported by GraphPad Prism is a value beyond the range of concentrations that were actually tested, if this value is more than 4 times the highest concentration tested, or where GraphPad Prism cannot calculate an IC50/90 value, notations of >5 μM (for test article compound 1) are used.

[2] = system: SU62 patient-derived colon cancer organoid model; experiment: organoid colony formation assay, SU62; type: cell-based, human
Procedure: The IC50 values for Compound 1 inhibition of colony formation and viability were determined for the patient-derived colon cancer organoid models: SU60, T002C, SU62, SU34, SU103, T03SC, and SU106, patient-derived pancreatic cancer organoid models PA016SF, PA0143F, T016P, and T028P, and a patient-derived breast cancer organoid model FS5S3.
Colony formation and viability assays were performed in multiwell plates seeded with organoids using an in vitro culture system composed of a Matrigel layer, media containing a defined set of growth factors, and co-culture with Wnt3 A-secreting mouse embryonic fibroblasts. Assays were initiated by adding either DMSO as a negative control, or an inhibitor panobinostatat 100×IC50 concentration as a positive control, or serially diluted Compound 1. The cultures were incubated for 168 or 144 hours after which the number of viable organoids in each test well was assessed respectively using one of two detection methods: CTG or staining with calcein-AM followed by imaging and colony counting. Colony count or viability of cells treated with compound 1 was expressed as a percent of the negative control. Aggregated Percent of Control values were plotted against the corresponding Compound 1 concentration and the absolute IC50 value was determined from a non-linear regression curve as the concentration where inhibition was 50% of the control.

[3] = system: GXA-3036 gastric adenocarcinoma patient-derived xenograft; experiment: in vivo efficacy, GXA-3036 gastric adenocarcinoma patient-derived xenograft model; settings: GXA-3036 PDX; for Median Tumor Volume Diff. (Day 35): Day 35 minus Day 0; for Median Tumor Volume Diff. (Day 38): Day 38 minus Day 0
Procedure: The therapeutic in vivo efficacy of Compound 1 was evaluated in SU60 colorectal cancer, KYSE-150 esophageal cancer, COH70 triple-negative breast cancer, GXA-3036 gastric adenocarcinoma and OCI-LY19 Diffuse Large B-Cell Non-Hodgkin's Lymphoma xenograft models. In all studies, efficacy was determined based on percent tumor growth inhibition (TGI), differences in mean tumor growth, and statistical assessment of differences in net tumor volume distributions on the day of TGI analysis between control and treated animals. Tolerability was assessed based on differences in mean body weights between control and treated animals over the course of the study.
The in vivo efficacy and tolerability of Compound 1, administered orally as the lysine salt form suspended in a vehicle comprised of 5% 2-hydroxypropyl-beta-cyclodextrin (HPBCD) in 50 mM phosphate buffer (pH 7.4), were evaluated in female immunodeficient NMRI-Foxn1nu mice using the subcutaneous gastric adenocarcinoma GXA-3036, a moderately differentiated intestinal type (based on Lauren's criteria) PDX model of Asian origin. Each mouse was inoculated subcutaneously in the right flank with a GXA-3036 tumor fragment (3 to 4 mm edge length). When the average tumor size reached ˜109 mm3, test animals were randomized into 5 groups consisting of 8 mice per group and treatments were initiated. Control mice received 5% HPBCD in 50 mM phosphate buffer (pH 7.4) vehicle PO 3 on/4 off. Treated mice received the Compound 1 lysine salt form in vehicle at 5, 15, or 50 mg/kg on the same schedule or at 22.5 mg/kg 2 on/5 off. One control animal, classified as moribund, was euthanized on Day 17 and was censored from analysis. Individual tumors were measured twice weekly in two dimensions using a caliper, and the tumor volumes (TV) in mm3 were calculated using the formula: TV=0.5 a×b2, where a and b are the long and short diameters in mm, respectively. Mean tumor volumes±SEM were calculated and plotted versus days of dosing (FIG. 14 left panel). Body weights were measured twice weekly. Body weights±SEM were calculated and plotted versus days of dosing (FIG. 14 right panel).
TGI was determined on Days 35 and 38 as (1−Difftreated/Diffcontrol)×100. The differences in median net tumor volumes on the days of TGI analysis for treated versus control animals were evaluated statistically using the non-parametric Kruskal-Wallis test followed by Dunn's multiple comparisons test. The reported adjusted p-values are for both days of TGI analysis where a calculated probability (p)≤0.05 was considered statistically significant.

[4] = 15 mg/kg PO 3 on/4 off, 15 mg/kg
[5] = 22.5 mg/kg PO 2 on/5 off, 22.5 mg/kg
[6] = 50 mg/kg PO 3 on/4 off, 50 mg/kg

## CC(C)c1ccc(N(C)c2ccc3c(c2)OCC[C@H]3CNc2cnccc2C(=O)O)cc1 [Compound 1, 3-({[(4R)-7-{methyl[4-(propan-2-yl)phenyl]amino}-3,4-dihydro-2H-1-benzopyran-4-yl]methyl}amino)pyridine-4-carboxylic acid]
[1]; 336 h, human bone marrow progenitor cells, 14 days, read-out: IC50, inhibition of myeloid colony formation
  IC50: > 5000 nM
[1]; 336 h, human bone marrow progenitor cells, colony growth after 14 days
  IC90: > 5 µg/mL
[1]; 336 h, human bone marrow progenitor cells, colony growth after 14 days, read-out: Myeloid IC50
  IC50: > 5 µg/mL
[1]; myeloid derived colonies
  concentrations at which colony morphology (size and density) was slightly compromised: ≥ 1.67 μM
[1]; progenitor cells from normal human bone marrow, p>0.01
  effect on colony formation compared to 0.1% DMSO: no significant effect
[2]; Homo sapiens, SU62 colorectal carcinoma model
  IC50: < 150 nM
[2]; SU62 human colorectal carcinoma organoid, 144 hrs, Colony Counts
  IC50: 149 nM
[3]; female NMRI-Foxn1nu mice, all regimens
  tolerability (mean body weights): well-tolerated
[3]; female NMRI-Foxn1nu mice, lysine salt 5 mg/kg (free acid equivalents) PO 3 on/4 off
  Median Tumor Volume Day 35: 391 mm^3
[3]; female NMRI-Foxn1nu mice, lysine salt 15 mg/kg (free acid equivalents) PO 3 on/4 off
  Median Tumor Volume Day 35: 278 mm^3
[3]; female NMRI-Foxn1nu mice, lysine salt 22.5 mg/kg (free acid equivalents) PO 2 on/5 off
  Median Tumor Volume Day 35: 447 mm^3
[3]; female NMRI-Foxn1nu mice, lysine salt 50 mg/kg (free acid equivalents) PO 3 on/4 off
  Median Tumor Volume Day 35: 371 mm^3
[3]; 5 mg/kg PO 3 on/4 off
  Median Tumor Volume Day 38: 460 mm^3
  Median Tumor Volume Diff. (Day 35): 282 mm^3
  Median Tumor Volume Diff. (Day 38): 351 mm^3
[3]; 5 mg/kg PO 3 on/4 off, 5 mg/kg
  % TGI (Day 35): 52%
  % TGI (Day 38): 43%
[3]; 15 mg/kg PO 3 on/4 off
  Median Tumor Volume Day 38: 298 mm^3
  Median Tumor Volume Diff. (Day 35): 169 mm^3
  Median Tumor Volume Diff. (Day 38): 189 mm^3
[3]; [4]
  % TGI (Day 35): 71%
  % TGI (Day 38): 69%
[3]; 22.5 mg/kg PO 2 on/5 off
  Median Tumor Volume Day 38: 470 mm^3
  Median Tumor Volume Diff. (Day 35): 338 mm^3
  Median Tumor Volume Diff. (Day 38): 361 mm^3
[3]; [5]
  % TGI (Day 35): 42%
  % TGI (Day 38): 41%
[3]; 50 mg/kg PO 3 on/4 off
  Median Tumor Volume Day 38: 403 mm^3
  Median Tumor Volume Diff. (Day 35): 262 mm^3
  Median Tumor Volume Diff. (Day 38): 294 mm^3
[3]; [6]
  % TGI (Day 35): 55%
  % TGI (Day 38): 52%
